Experimental data as given in patent USRE40246E1, “Method for the suppression of viral growth” (John Hopkins University, priority 1994, dated 2008).
Values joined by “and” are separate entries in the source; they are usually repeats but may differ in a detail not shown here. Identical values can stand only once. Like-named read-outs stand apart in the source and are kept apart here.

What was measured:
[1] = test system: HSV-Sm44-ACVg; test: Drug sensitivity against ACV sensitive strain of HSV-1; assay type: cell-based; details: Human alphaherpesvirus 1, read-out: IC50, HSV-Sm44-ACVg
[2] = test system: HSV-1; test: Drug sensitivity against HSV-1 in Vero cells at different viral passages; assay type: cell-based; details: for IC50: Human alphaherpesvirus 1, Vero
Description: Virus which recovered from medium of each passage at IC50 drug concentration were used to infect the subsequent passage of the cells.

[3] = test system: HSV-18m44-CV4r; test: Drug sensitivity against ACV resistant strain of HSV-1; assay type: cell-based
[4] = test system: HSV-1; test: Topical treatment of HSV-1 infected skin of guinea pigs; assay type: in vivo; details: guinea pig; for suppression of HSV-1 replication in infected skin: topical five times per day for five days, ABPS 2 and 4 mg/ml, tetramethoxyl NDGA 60 mg/ml, acyclovir 60 mg/ml
Description: It is also noted that tetramethoxyl NDGA 4N has been used in an animal system, i.e. to treat HSV infected skin of guinea pigs.
Two male guinea pigs (350 gm body weight) were used in the guinea pig experiment. The back skin of the animal was shaved and equally divided into six patches. Each skin patch was pinched with seven-pin needles and HSV-1 suspension was applied topically to infect each punched area. Twenty-four hours after infection, three agents (ABPS, 2 mg/ml, ABPS 4 mg/ml, tetramethoxyl NDGA, 4N 60 mg/ml and acyclovir 60 mg/ml) were applied to the infected areas five times per day for five days. Picture (FIG. 8) was taken 96 hours following infection.

[5] = test system: HIV-1; test: microbe, parasite or virus in culture; details: Human immunodeficiency virus 1, CEM-SS, read-out: EC50, concentration that protects XTT formazan production in infected culture to 50% of uninfected, untreated cells
Description: Consequently, creosote bush extract was tested at the National Cancer Institute (NCI) for inhibition of HIV-1 cytopathic effects using the soluble-formazan assay (Weislow et al., JNCI 81: 577-586, 1989, the entire contents of which are hereby incorporated by reference and relied upon). In principle, CEM-SS cells (ATCC, Rockville, Md.) are cocultivated with HIV-producing H9 cells. Viruses infect the host CEM-SS cells, replicate and kill most of the CEM-SS cells in a week. If the drug inhibits HIV production, CEM-SS cells are protected from HIV-induced cell death.
In practice, triplicate samples of CEM-SS cells (5000) were plated in 96-well microtiter plate. Appropriate concentrations of test compounds were added in a final volume of 100 μl calcium/magnesium-free PBS in 5% DMSO. Control samples received the compound medium (PBS) alone. Five minutes later, 500 highly infectious HIV-1 producing II9 cells or normal H9 cells were added to the wells containing the appropriate drug concentrations. The microtiter plates were incubated at 37° C. in 95% O2/5% CO2 for 6 days after which a 50-μl mixture of XTT and N-methylphenazonium methosulfate (PMS) was added. The plates were reincubated for additional 4 hours for the color development (XTT formazan production). The plates were sealed, their contents were mixed by automatic shaking and the OD450 of samples was determined in a microplate reader. […]

[6] = test system: uninfected CEM-SS cells; test: Soluble-formazan (XTT) assay, viability of uninfected CEM-SS cells; assay type: cell-based; details: Homo sapiens, read-out: IC50, inhibitory or toxic concentration reducing XTT formazan production in uninfected cultures to 50%
[7] = test system: Tat regulated transactivation (Tat-TRS) of HIV-1 LTR promoter; test: Secreted alkaline phosphatase (SEAP) assay for Tat transactivation in cotransfected COS cells; assay type: cell-based; details: for EC50: Human immunodeficiency virus 1, COS, 48 h; for Inhibition of Tat-induced SEAP expression: read at 30 minutes
Description: To screen for inhibitors for Tat regulated transactivation (Tat-TRS), the secreted placental alkaline phosphatase (SEAP) reporter gene is put under the control of HIV-1 LTR promoter in the plasmid pBC12HIV/SEAP. The Tat-coded activity is supplied by a second plasmid construct pBC12/CMV/t2. […] An inhibitor should cause reduction of the SEAP activity which is due to inhibition of the expression of the SEAP mRNA via transactivation of the HIV-1 LTR promoter by Tat protein (Tat-TRS).
For the SEAP assay, test materials were dissolved in 10% DMSO solution made in calcium/magnesium-free PBS. The suspension was centrifuged and the stock solution (10 mg/ml) was filter-sterilized using a Millex®-GS […] filter (Millipore). Appropriate dilutions of the stock solution were prepared in a final DMSO concentration of 0.2% in PBS to obtain the various concentrations of test compounds.
Briefly, a day before DNA transfection, Linbro® 24 flat bottom well of 17-mm diameter plates were pretreated with 0.5 ml sterile solution of 0.1% gelatin. The plates were kept in the hood for 1 hour (all transfection steps were performed in the hood, unless otherwise stated). The gelatin solution was aspirated and the plates were washed with 0.5 ml of IMDM supplemented with 10% fetal calf serum and antibiotics (complete medium). […] DNA transfection was performed at 30-50% cell confluency. The stock solution of the Transfectam reagent, DOGS, was prepared according to the manufacturer's advice at 1 mg/0.380 ml ([…] or 3.4 mM) in 10% (v/v) ethanol in distilled water.
The transfection cocktail consisted of two solutions prepared in sterile tubes: • a) Solution A contained a sterile 150 mM NaCl solution+plasmid DNAs (non selected/selected gene in 2:1 ratio): 0.35 μg of pBC12/HIV/SEAP per well+0.175 μg of pBC12/CMB/t2 (coding for Tat function) per well. • b) Solution B Contained an equal volume of 150 mM NaCl and a volume of Transfectame determined to be 6 times the total amount of DNAS. Solutions A and B were homogenized and immediately mixed.
Ten minutes were allowed for the reaction to proceed. Meanwhile, the growth medium was removed from the subconf luent COS cells and 300 μl (100 μl of complete IMDM+200 μl serum-free medium) were added to each well. The transfection cocktail was dispensed to the wells in equal volume. Control samples containing no DNA were similarly treated and received sterile 150 mM NaCl solution alone. All samples were incubated for 10 and 12 hours after which 700 μl of complete growth medium were added. Test compounds prepared in 5% DMSO/Ca-Mg-free PBS (for non-water-soluble materials) were immediately added at various concentrations to the wells. Drug-untreated control samples received 5% DMSO/PBS solution alone (final DMSO concentration of 0.2%). All samples were then incubated for an additional 48 hours after which 300 μl of each culture supernatant was removed for SEAP analysis.
Briefly, a 250-μl aliquot was removed from COS cell culture supernatants, heated at 65° C. for 5 minutes to selectively inactivate endogenous phosphatase (SEAP is heat stable) and centrifuged in a microfuge for 2 minutes. One hundred μl of 2×SEAP assay buffer (1.0 M diethanolamine, pH 9.8; 0.5 mM MgCl2; 10 mm L-homoarginine) were added to 100-μl aliquot of the samples. The solution was mixed and transferred into a 96-well flat-bottom culture dish (Corning). Twenty μl of pre-warmed substrate solution (120 mM p-nitrophenylphosphate dissolved in 1×SEAP assay buffer) were dispensed with a multipipeter into each well containing the reaction mixture. A405 of the reaction was read at 5-minute intervals at 37° C. for 60 minutes using an EL340i microplate reader (Bio-tek Instruments, Inc.) with 5-second automatic shakings before each reading. The change in absorbance was plotted against time in the standard assay of SEAP induction.

[8] = test system: HSV-1 ICP4; test: Inhibition of HSV-1 ICP4 transactivation in Vero cells; assay type: cell-based; details: Human alphaherpesvirus 1, Vero
[9] = test system: Vero cells; test: Inhibition of growth of Vero cells; assay type: cell-based; details: Chlorocebus sabaeus
[10] = test system: HSV-1; test: Inhibition of HSV-1 replication in Vero cells; assay type: cell-based; details: Human alphaherpesvirus 1, Vero
[11] = read-out: IC50 against HSV-1 in Vero Cells, Passage 1
[12] = read-out: IC50 against HSV-1 in Vero Cells, Passage 2
[13] = read-out: IC50 against HSV-1 in Vero Cells, Passage 3
[14] = read-out: IC50 against HSV-1 in Vero Cells, Passage 4
[15] = read-out: IC50 against HSV-1 in Vero Cells, Passage 5
[16] = read-out: IC50 against HSV-1 in Vero Cells, Passage 10
[17] = Human alphaherpesvirus 1, read-out: IC50, HSV-18m44-CV4r
[18] = read-out: EC50 (concentration exhibiting 50% inhibition) of Tat regulated HIV transactivation, SEAP expression
[19] = read-out: EC50 of Tat regulated HIV transactivation, SEAP expression
[20] = Mal 4 at 9.5 μm, NDGA at 9.9 μm
[21] = Mal 4 at 31.3 μm, NDGA at 32.6 μm
[22] = Mal 4 at 62.7 μm, NDGA at 65.2 μm

Nc1nc2c(ncn2COCCO)c(=O)[nH]1 [ACV, acyclovir, reference compound]
IC50 [1]: < 6.9 µM | IC50 [2, 11]: 7.5 µM | IC50 [2, 12]: 37.8 µM | IC50 [2, 13]: > 88.8 µM | IC50 [2, 14]: 138 µM | IC50 [2, 15]: > 220 µM | IC50 [2, 16]: 440 µM | IC50 ([2]; read-out: concentration required to inhibit HSV-1, 10th passage): 440 µM | IC50 ([2]; read-out: concentration required to inhibit HSV-1, first passage): 7.5 µM | IC50 [3, 17]: 118 µM | suppression of HSV-1 replication in infected skin [4]: effective

COc1ccc(CC(C)C(C)Cc2ccc(O)c(O)c2)cc1O (stereo not shown) [Mal 4, 1-(3,4-dihydroxyphenyl)-4-(3-hydroxy-4-methoxyphenyl)-2,3-dimethylbutane]
EC50 [5]: 4.25 µg/mL and 13.4 µM | IC50 [6]: 100 µg/mL and 325 µM | EC50 [7, 18]: 8 µg/mL | EC50 [7, 19]: 25 µM | Inhibition of Tat-induced SEAP expression [7, 20]: 13.6% | Inhibition of Tat-induced SEAP expression [7, 21]: 60.4% | Inhibition of Tat-induced SEAP expression [7, 22]: 92% | Inhibition of Tat-induced SEAP expression ([7]; Mal 4 at 95 μm, NDGA at 99 μm): 100%

CC(Cc1ccc(O)c(O)c1)C(C)Cc1ccc(O)c(O)c1 (stereo not shown) [NDGA, 1,4-bis-(3,4-dihydroxyphenyl)-2,3-dimethylbutane]
EC50 [7, 18]: 6 µg/mL | EC50 [7, 19]: 20 µM | Inhibition of Tat-induced SEAP expression [7, 20]: 17.0% | Inhibition of Tat-induced SEAP expression [7, 21]: 73.8% | Inhibition of Tat-induced SEAP expression [7, 22]: 88.1% | Inhibition of Tat-induced SEAP expression ([7]; Mal 4 at 95 μm, NDGA at 99 μm): 92.9%

COc1ccc(C[C@@H](C)[C@@H](C)Cc2ccc(OC)c(OC)c2)cc1OC [Tetramethoxyl NDGA, tetramethoxyl nordihydroguaiaretic acid]
IC50 [1]: 6.9 µM | IC50 [8]: 33 µM | inhibition at 20 µM ([8]; 20 μM): 8% | inhibition at 30 µM ([8]; 30 μM): 30% | inhibition at 40 µM ([8]; 40 μM): 35% | inhibition at 50 µM ([8]; 50 μM): 52% | inhibition at 60 µM ([8]; 60 μM): 64% | inhibition at 70 µM ([8]; 70 μM): 68% | inhibition at 80 µM ([8]; 80 μM): 78% | IC50 [9]: 142 µM | inhibition at 4.37 µM ([9]; 4.37 μM): 1.27% | inhibition at 8.75 µM ([9]; 8.75 μM): 3.18% | inhibition at 17.5 µM ([9]; 17.5 μM): 7.64% | inhibition at 35 µM ([9]; 35 μM): 7.64% | inhibition at 70 µM ([9]; 70 μM): 9.55% | inhibition at 140 µM ([9]; 140 μM): 44% | inhibition at 280 µM ([9]; 280 μM): 79.6% | IC50 ([2]; read-out: IC50 against HSV-1, essentially the same from first passage to tenth passage, first to tenth passage in vero cells): ~10 µM | IC50 [2, 11]: 11.7 µM | IC50 [2, 12]: 4.4 µM | IC50 [2, 13]: 8.2 µM | IC50 [2, 14]: 5.9 µM | IC50 [2, 15]: 9.9 µM | IC50 [2, 16]: 10 µM | drug resistance of HSV virus toward the drug ([2]; following ten viral passages in vero cells): showed no drug resistance | IC50 [10]: 7.7 µM | inhibition at 0.437 µM ([10]; 0.437 μM): < 0% | inhibition at 0.875 µM ([10]; 0.875 μM): < 0% | inhibition at 1.75 µM ([10]; 1.75 μM): < 0% | inhibition at 3.5 µM ([10]; 3.5 μM): 20% | inhibition at 7 µM ([10]; 7 μM): 40% | inhibition at 14 µM ([10]; 14 μM): 97.5% | IC50 [3, 17]: 6.9 µM | IC50 ([3]; Human alphaherpesvirus 1, read-out: IC50 against acyclovir resistant strain (HSV-1 SM44-CV4r)): 6.9 µM | HSV-1 growth at infected skin areas ([4]; 60 mg/ml, daily topical treatment, five days): eliminated HSV-1 growth completely | suppression of HSV-1 replication in infected skin [4]: effective
